The values that follow come from patent publication US20230192686A1, “1H-PYRROLO[2,3-B]PYRIDINES AND PREPARATION AND USES THEREOF” (BioSplice Therapeutics, Inc., priority 2021, published 2023).

As a reminder, the EC50 is the concentration giving half of the maximal effect.

Assay [1] concerns the target recombinant DYRK1A kinase (Homo sapiens, UniProt Q13627). In words: DYRK1A kinase assay (Ser/Thr 18 peptide Z-lyte FRET). The assay is classed as biochemical. The note with it: DYRK1A kinase activity; 15 μM ATP, 4 μM Ser/Thr peptide 18, one hour at room temperature. The procedure, abridged:
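Recombinant DYRK1A at 0.25 μg/mL was incubated 1 h at room temperature with 15 μM ATP, 4 μM Ser/Thr 18 peptide and compound, in duplicate, 11-point series from 10 μM. Phosphorylation was read by Z-lyte FRET after 1 h protease development, as the coumarin/fluorescein emission ratio converted to % phosphorylation. IC50 by non-linear regression.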

In assay [2] the test system is Tau phosphorylation at Thr212 (pThr212). Put plainly: Tau phosphorylation assay, phosphoTau (Thr212) AlphaLISA in HEK293T cells transfected with DYRK1A and MAPT. The assay is classed as cell-based. The note with it: HEK-293T; HEK293T cells transfected with human DYRK1A and MAPT; compound treatment 18-24 hours; read-out: pTau (Thr212) EC50. The procedure:
Representative compounds were screened using the assay procedure for tau phosphorylation activity described below.
HEK293T cells (ATCC, CRL3216) cultured in DMEM (Thermo Fisher Scientific, 10566024) supplemented with 10% FBS (Corning, 35-011-CV) and Penicillin/Streptomycin (Thermo Fisher Scientific, 15140163) were seeded in a 75 cm^2 flask at 8.1×10^6 cells/flask. The HEK293T cells were then transiently transfected with 5 μg DYRK1A (NM_001396) human untagged clone (OriGene, SC314641) and 2.5 μg MAPT (441 a.a. Tau gene) (NM_005910) human untagged clone (OriGene, TP313312) using Lipofectamine 3000 (Thermo Fisher Scientific, L30000015) and incubated for 20-30 hours in a humidified incubator at 37° C. and 5% CO2. Post-incubation, HEK293T cells transfected with the DYRK1A and MAPT expression vectors were harvested and seeded in BioCoat poly-D lysine coated 96-well plates (Corning, 354461) at 3×10^4 cells/well.
The above synthesized compounds were screened using the cell assay procedure to assess decreased Tau phosphorylation at Thr212 (pThr212) described below.
Each compound was dissolved in DMSO (Sigma-Aldrich, D8418-100 mL) as a 10 mM stock. 10 mM stocks were serially diluted 1:3, 10-point dose-response curve and added to the cells with a final concentration ranging from 20 μM to 1.1 nM. Cell were treated with compounds in duplicate and incubated for 18-24 hours in a humidified incubator at 37° C. and 5% CO2.
Following the overnight compound treatment, cells were lysed with 1× Alpha Surefire Ultra Lysis Buffer (Perkin Elmer, ALSU-LB-100ML) complemented with 1× Halt Phosphatase Inhibitor Cocktail (Thermo Fisher Scientific, 78427) and 1× Halt Protease Inhibitor Cocktail (Thermo Fisher Scientific, 78438). Lysates were spun down at 12,000 g for 10 min to remove any cellular debris and 5 μL of lysates were dispensed into a 384-well Opti-Plate (Perkin Elmer, 6007290) for the measurement of Tau phosphorylation in the phosphoTau (Thr212) AlphaLISA assay. Donor antibody, biotinylated HT7Tau (Thermo Fisher Scientific, MN1000B), and acceptor antibody, pThr212Tau (Thermo Fisher Scientific, 44740G) were both added to the cell lysates at a final concentration of 3 nM and incubated for 1 hour at room temperature. Following incubation of the lysates with the donor and acceptor antibodies, anti-rabbit IgG(Fc specific) AlphaLISA acceptor beads (Perkin Elmer, AL104C) were added at a 10 ug/mL final concentration and incubated for 1 hour at room temperature protected from light. Lastly, AlphaScreen streptavidin donor beads (PerkinElmer, 6760002) were added at 40 ug/mL final concentration and incubated for 1 hour at room temperature protected from light. Plates were read at Ex=[…], and Em=615 nm on the EnVision Multilabel Plate Reader (Perkin Elmer) phospho-Tau (Thr212) AlphaLISA signal was used to plot, draw the curve fitting, and determine each compound's EC50 in Prism (GraphPad).

Turning to `CN1CCC(NC(=O)c2cnn3ccc(-c4c[nH]c5nc(CC6CCC6)ccc45)cc23)CC1` [Compound 1640, 5-(6-(Cyclobutylmethyl)-1H-pyrrolo[2,3-b]pyridin-3-yl)-N-(1-methylpiperidin-4-yl)pyrazolo[1,5-a]pyridine-3-carboxamide], the 50% effective concentration (EC50) was 6 nM in assay [1] and 199 nM in assay [2].
Take `FC(F)Oc1ccc2c(-c3ccc4nccn4c3)c[nH]c2n1` [Compound 1708, 6-(6-(Difluoromethoxy)-1H-pyrrolo[2,3-b]pyridin-3-yl)imidazo[1,2-a] pyridine]: the figures for the EC50 in assay [1] and in assay [2] were 18 nM and 540 nM, respectively.
The like results for `CCOc1ccc2c(-c3ccc4nccn4c3)c[nH]c2n1` [Compound 1750, 6-(6-Ethoxy-1H-pyrrolo[2,3-b]pyridin-3-yl)imidazo[1,2-a]pyridine] were, in that order, 9 nM and 210 nM.
Regarding `CCOc1ccc2c(-c3ccc4ncccc4c3)c[nH]c2n1` [Compound 1782, 6-(6-Ethoxy-1H-pyrrolo[2,3-b]pyridin-3-yl)quinoline], the concentration for a half-maximal effect (EC50) in assay [1] turned out to be 15 nM; in assay [2], 305 nM.
`CN1CCC(NC(=O)c2cnn3ccc(-c4c[nH]c5nc(-c6ccccc6)ccc45)cc23)CC1` [Compound 2018, N-(1-Methylpiperidin-4-yl)-5-(6-phenyl-1H-pyrrolo[2,3-b]pyridin-3-yl)pyrazolo[1,5-a]pyridine-3-carboxamide]: the EC50 in assay [1] was 7 nM; in assay [2], 8 nM.
On the same counts, the results for `CN1CCN(C(=O)c2cnn3ccc(-c4c[nH]c5ncc(C#N)cc45)cc23)CC1` [Compound 2046, 3-(3-(4-Methylpiperazine-1-carbonyl)pyrazolo[1,5-a]pyridin-5-yl)-1H-pyrrolo[2,3-b]pyridine-5-carbonitrile] are 47 nM and 622 nM.
As for `O=C(Nc1ccncc1)c1ccc2c(-c3ccc4ncccc4c3)c[nH]c2n1` [Compound 2054, N-(Pyridin-4-yl)-3-(quinolin-6-yl)-1H-pyrrolo[2,3-b]pyridine-6-carboxamide], the 50% effective concentration (EC50) in assay [1] turned out to be 51 nM; in assay [2], 6240 nM.
